Patent US9161536B2, “Herbicidal compositions comprising 4-amino-3-chloro-6-(4-chloro-2-fluoro-3-methoxyphenyl)-5-fluoropyridine-2-carboxylic acid or a derivative thereof and flurtamone, diflufenican, or picolinafen” (Dow AgroSciences LLC, priority 2012, dated 2015)

Columns and labels:
Format in all cases: in vivo
[1] = tested on: Triticum aestivum (spring), spring wheat (TRZAS); assay: greenhouse trial, foliar applied compositions, TRZAS
From the text: (§1) More specifically, the following equation is used to calculate the expected activity of mixtures containing two herbicical active ingredients: Expected=A+B−(A×B/100) • A=observed efficacy of a first active ingredient at the same concentration as used in the mixture; • B=observed efficacy of the second active ingredient (or product, which may be a combination of active ingredients) at the same concentration as used in the mixture.
(§2) Results in Tables 1-8 are greenhouse trial results for foliar applied compositions.
(§3) • g/ha=grams acid equivalent per hectare (g ae/ha) for Cmpd 1 and grams active ingredient per hectare (g ai/ha) for diflufenican, picolinafen, BACARA® and BACARA® FORTE • Obs=observed value • Exp=expected value as calculated by the equations set forth above in paragraph [0024]. • Cmpd 1=benzyl 4-amino-3-chloro-6-(4-chloro-2-fluoro-3-methoxyphenyl)-5-fluoropyridine-2-carboxylate

[2] = tested on: Viola tricolor L., wild violet (VIOTR); assay: greenhouse trial, foliar applied compositions, VIOTR
From the text: as §1, §2, §3

[3] = tested on: Matricaria recutita L., wild chamomile (MATCH); assay: greenhouse trial, foliar applied compositions, MATCH
From the text: as §1, §2, §3

[4] = tested on: Chenpodium album L., common lambsquarters (CHEAL); assay: greenhouse trial, foliar applied compositions, CHEAL
From the text: as §1, §2, §3

[5] = tested on: Hordeum vulgare L., spring barley (HORVS); assay: greenhouse trial, foliar applied compositions, HORVS
From the text: as §1, §2, §3

[6] = tested on: Salsola tragus L., Russian thistle (SASKR); assay: greenhouse trial, foliar applied compositions, SASKR
From the text: as §1, §2, §3

[7] = tested on: Stellaria media (L.) Vill., common chickweed (STEME); assay: greenhouse trial, foliar applied compositions, STEME
From the text: as §1
In some embodiments, the methods provided herein are utilized to control undesirable vegetation in cereals. In certain embodiments, the undesirable vegetation is Alopecurus myosuroides Huds. (blackgrass, ALOMY), Apera spica venti (L.) Beauv. (windgrass, APESV), Avena fatua L. (wild oat, AVEFA), Bromus tectorum L. (downy brome, BROTE), Lolium multiflorum Lam. (Italian ryegrass, LOLMU), Lolium rigidum (rigid ryegrass), Lolium multiflorum subsp. Gaudini (annual ryegrass, LOLMG), Phalaris minor Retz. […]
as §3

[8] = tested on: Sinapis arvensis L., wild mustard (SINAR); assay: greenhouse trial, foliar applied compositions, SINAR
From the text: as §1, §2, §3

[9] = tested on: Galium aparine L., catchweed bedstraw (GALAP); assay: greenhouse trial, foliar applied compositions, GALAP
From the text: as §1, §2, §3

[10] = tested on: Kochia scoparia (L.) Schrad., kochia (KCHSC); assay: greenhouse trial, foliar applied compositions, KCHSC
From the text: as §1, §2, §3

[11] = tested on: Lamium purpureum L., purple deadnettle (LAMPU); assay: greenhouse trial, foliar applied compositions, LAMPU
From the text: as §1, §2, §3

[12] = tested on: Cirsium arvense (L.) Scop., Canada thistle (CIRAR); assay: greenhouse trial, foliar applied compositions, CIRAR
From the text: as §1, §2, §3

[13] = tested on: Veronica persica Poir., Persian speedwell (VERPE); assay: greenhouse trial, foliar applied compositions, VERPE
From the text: as §1, §2, §3

[14] = tested on: Papaver rhoeas L., common poppy (PAPRH); assay: greenhouse trial, foliar applied compositions, PAPRH
From the text: as §1, §2, §3

COc1c(Cl)ccc(-c2nc(C(=O)OCc3ccccc3)c(Cl)c(N)c2F)c1F [Cmpd 1, benzyl 4-amino-3-chloro-6-(4-chloro-2-fluoro-3-methoxyphenyl)-5-fluoropyridine-2-carboxylate]
TRZAS Obs ([1]; Cmpd 1 2.5 g ae/ha alone): 0 | TRZAS Obs ([1]; Cmpd 1 5 g ae/ha alone): 5 | VIOTR Obs ([2]; Cmpd 1 2.5 g ae/ha alone): 10 | VIOTR Obs ([2]; Cmpd 1 5 g ae/ha alone): 10 | MATCH Obs ([3]; Cmpd 1 2.5 g ae/ha alone): 0 | MATCH Obs ([3]; Cmpd 1 5 g ae/ha alone): 10 | CHEAL Obs ([4]; Cmpd 1 2.5 g ae/ha alone): 50 | CHEAL Obs ([4]; Cmpd 1 5 g ae/ha alone): 60 | HORVS Obs ([5]; Cmpd 1 2.5 g ae/ha alone): 0 | HORVS Obs ([5]; Cmpd 1 5 g ae/ha alone): 0 | SASKR Obs ([6]; Cmpd 1 2.5 g ae/ha alone): 10 | SASKR Obs ([6]; Cmpd 1 5 g ae/ha alone): 60 | STEME Obs ([7]; Cmpd 1 2.5 g ae/ha alone): 20 | STEME Obs ([7]; Cmpd 1 5 g ae/ha alone): 30 | SINAR Obs ([8]; Cmpd 1 2.5 g ae/ha alone): 60 | SINAR Obs ([8]; Cmpd 1 5 g ae/ha alone): 70 | GALAP Obs ([9]; Cmpd 1 2.5 g ae/ha alone): 60 | GALAP Obs ([9]; Cmpd 1 5 g ae/ha alone): 60 | KCHSC Obs ([10]; Cmpd 1 2.5 g ae/ha alone): 20 | KCHSC Obs ([10]; Cmpd 1 5 g ae/ha alone): 40 | LAMPU Obs ([11]; Cmpd 1 2.5 g ae/ha alone): 80 | LAMPU Obs ([11]; Cmpd 1 5 g ae/ha alone): 80 | CIRAR Obs ([12]; Cmpd 1 2.5 g ae/ha alone): 10 | CIRAR Obs ([12]; Cmpd 1 5 g ae/ha alone): 20 | VERPE Obs ([13]; Cmpd 1 2.5 g ae/ha alone): 0 | VERPE Obs ([13]; Cmpd 1 5 g ae/ha alone): 5 | PAPRH Obs ([14]; Cmpd 1 2.5 g ae/ha alone): 20 | PAPRH Obs ([14]; Cmpd 1 5 g ae/ha alone): 70

O=C(Nc1ccc(F)cc1F)c1cccnc1Oc1cccc(C(F)(F)F)c1 [Diflufenican, N-(2,4-difluorophenyl)-2-[3-(trifluoromethyl)phenoxy]-3-pyridinecarboxamide]
TRZAS Obs ([1]; Diflufenican 50 g ai/ha alone): 5 | VIOTR Obs ([2]; Diflufenican 50 g ai/ha alone): 15 | MATCH Obs ([3]; Diflufenican 50 g ai/ha alone): 0 | CHEAL Obs ([4]; Diflufenican 50 g ai/ha alone): 10 | HORVS Obs ([5]; Diflufenican 50 g ai/ha alone): 5 | SASKR Obs ([6]; Diflufenican 50 g ai/ha alone): 70 | SINAR Obs ([8]; Diflufenican 50 g ai/ha alone): 30 | GALAP Obs ([9]; Diflufenican 50 g ai/ha alone): 0 | KCHSC Obs ([10]; Diflufenican 50 g ai/ha alone): 40 | LAMPU Obs ([11]; Diflufenican 50 g ai/ha alone): 0 | CIRAR Obs ([12]; Diflufenican 50 g ai/ha alone): 0 | VERPE Obs ([13]; Diflufenican 50 g ai/ha alone): 10 | PAPRH Obs ([14]; Diflufenican 50 g ai/ha alone): 0

O=C(Nc1ccc(F)cc1)c1cccc(Oc2cccc(C(F)(F)F)c2)n1 [Picolinafen, N-(4-fluorophenyl)-6-[3-(trifluoromethyl)phenoxy]-2-pyridinecarboxamide]
TRZAS Obs ([1]; Picolinafen 50 g ai/ha alone): 10 | VIOTR Obs ([2]; Picolinafen 50 g ai/ha alone): 10 | MATCH Obs ([3]; Picolinafen 50 g ai/ha alone): 0 | CHEAL Obs ([4]; Picolinafen 50 g ai/ha alone): 70 | HORVS Obs ([5]; Picolinafen 50 g ai/ha alone): 10 | SASKR Obs ([6]; Picolinafen 50 g ai/ha alone): 30 | SINAR Obs ([8]; Picolinafen 50 g ai/ha alone): 70 | KCHSC Obs ([10]; Picolinafen 50 g ai/ha alone): 20 | LAMPU Obs ([11]; Picolinafen 50 g ai/ha alone): 0 | CIRAR Obs ([12]; Picolinafen 50 g ai/ha alone): 15 | VERPE Obs ([13]; Picolinafen 50 g ai/ha alone): 10
